Experimental data taken from the NIST ThermoML archive (doi:10.1016/j.tca.2013.04.011).
Numbers after ± are expanded uncertainties.

Details: 101.33 kPa, Liquid; for speed of sound: Single path-length method; for mass density: Vibrating tube method

| speed of sound (293.15 K) | mass density (293.15 K) | speed of sound (298.15 K) | mass density (298.15 K) | speed of sound (303.15 K) | mass density (303.15 K) | speed of sound (308.15 K) | mass density (308.15 K) | SMILES |
| --- | --- | --- | --- | --- | --- | --- | --- | --- |
| 1631 ± 2 m/s | 1283.89 ± 1.9 kg/m3 | 1619.4 ± 2 m/s | 1279.91 ± 1.9 kg/m3 | 1607.6 ± 2 m/s | 1276.26 ± 1.9 kg/m3 | 1596.3 ± 2 m/s | 1272.07 ± 1.9 kg/m3 | CCn1cc[n+](C)c1.F[B-](F)(F)F [1-ethyl-3-methylimidazolium tetrafluoroborate] |
| 1565.5 ± 1.1 m/s | 1033.23 ± 0.33 kg/m3 | 1546 ± 1.1 m/s | 1028.23 ± 0.33 kg/m3 | 1527.2 ± 1.1 m/s | 1023.46 ± 0.32 kg/m3 | 1507.4 ± 1.1 m/s | 1018.66 ± 0.32 kg/m3 | CN1CCCC1=O [N-methylpyrrolidone] |

| SMILES | speed of sound (293.15 K) | mass density (293.15 K) | speed of sound (298.15 K) | mass density (298.15 K) | speed of sound (303.15 K) | mass density (303.15 K) | speed of sound (308.15 K) | mass density (308.15 K) |
| --- | --- | --- | --- | --- | --- | --- | --- | --- |
| O=C1CCCN1 [2-pyrrolidinone] | 1650.1 ± 1.1 m/s | 1111.28 ± 0.41 kg/m3 | 1633.9 ± 1.1 m/s | 1107.15 ± 0.41 kg/m3 | 1617.1 ± 1.1 m/s | 1103.02 ± 0.41 kg/m3 | 1601.8 ± 1.1 m/s | 1098.9 ± 0.4 kg/m3 |
